Laboratory results as given in article PMC5423902, “CXCL9-Derived Peptides Differentially Inhibit Neutrophil Migration In Vivo through Interference with Glycosaminoglycan Interactions” (Frontiers in Immunology, 2017).

Assays:
[1] = system: CXCL1(1-72) binding to heparan sulfate (HS); test: Competition with CXCL1 for binding to immobilized HS; set-up: species or system murine; conditions: n ≥ 3, Figure 6A; for reduction of CXCL1 binding to HS: mean; for maximum inhibition of CXCL1 binding to HS: maximum achieved
Experimental: The ability of the COOH-terminal peptides of CXCL9 and CXCL4 to compete for GAG binding with the inflammatory chemokines CXCL8 and CXCL1 was evaluated on heparin-binding plates [BD Biosciences or produced by Jason Whittle (School of Engineering/Future Industries Institute, University of South Australia, Australia)] ([42], [47]). In brief, GAGs (heparin, HS, and CS; Iduron; 25 µg/ml) were coated overnight at room temperature. Dilutions of COOH-terminal CXCL9 or CXCL4 peptide combined with recombinant human CXCL8(1-77) or recombinant murine CXCL1(1-72) (Peprotech, Rocky Hill, NJ, USA) were added in duplicate and incubated for 2 h at 37°C. Subsequently, bound CXCL8 or CXCL1 was detected with biotinylated polyclonal rabbit anti-human CXCL8 or biotinylated polyclonal goat anti-mouse CXCL1 (Peprotech) and horse radish peroxidase-labeled streptavidin. Finally, the peroxidase activity was quantified at 450 nm.
Competition between CXCL1 and COOH-terminal CXCL9 peptides for binding to immobilized heparan sulfate (HS) (A) and chondroitin sulfate (CS) (B) was performed. […] Bound CXCL1 was detected with biotinylated polyclonal goat anti-mouse CXCL1 antibodies. The mean (± SEM) percentage inhibition of CXCL1 binding to GAGs is indicated on the y-axis (n ≥ 3). Statistical comparison of the different competitors with CXCL9(74–103) was performed using the Mann–Whitney U-test.

[2] = system: CXCL8-induced neutrophil migration; test: CXCL8-induced neutrophil migration to the peritoneal cavity; type: in vivo, mouse (NMRI); conditions: for neutrophils in the peritoneal cavity upon CXCL8: significant; for neutrophils in the peritoneal cavity upon CXCL8 / percentage of neutrophils in the peritoneal cavity upon CXCL8: n ≥ 5
Experimental: In vivo neutrophil extravasation to the peritoneal or the knee cavity was examined, respectively, by intraperitoneal or intra-articular injection, of endotoxin-free recombinant CXCL8(1-77) (PeproTech) or vehicle (PBS) in female NMRI or C57BL/6 mice, as described previously ([42], [48]). Simultaneously, synthetic CXCL9 peptide was co-injected either intraperitoneally or injected intravenously. After 2 h (peritoneal cavity) or 3 h (knee cavity), mice were sacrificed. The peritoneal cavity was washed with saline enriched with 2% FCS and 20 U/ml heparin and total leukocyte counts were determined. For the preparation of cytospins, 10^5 cells were used and absolute number and percentage of neutrophils in the lavages were determined in duplicate independently by two researchers by differential microscopic counting. The cells present in the tibiofemoral articulation were harvested by washing the cavity with 10 µl of 3% (w/v) bovine serum albumin in PBS and diluted in 90 µl of 3% (w/v) bovine serum albumin in PBS. The number of total leukocytes was determined by counting leukocytes in a Neubauer chamber after staining with Turk’s solution. Differential counts were obtained from cytospin preparations by evaluating the percentage of each leukocyte type on a slide stained with May-Grunwald-Giemsa solution.
Figure 4 The COOH-terminal peptides of CXCL9 inhibit CXCL8-induced neutrophil migration to the peritoneal cavity. CXCL8(1-77) was injected into the peritoneal cavity of NMRI mice (n ≥ 5) simultaneously with an intraperitoneal (A) or intravenous (B,C) injection of CXCL9(74-103) or CXCL9(74–93). The number of neutrophils in the peritoneal cavity, 2 h post injection, were evaluated by differentially counting the leukocyte subtypes on Hemacolor-stained cytospins. The neutrophil counts are shown for every individual mouse, and the horizontal lines denote the median percentage. To detect statistically significant differences, the Mann–Whitney U-test was carried out (*p < 0.05; **p < 0.01; ***p < 0.005).

[3] = system: cellular GAGs on CHO cells; test: Binding of biotinylated peptides to CHO cells (cellular GAGs), flow cytometry; type: cell-based, Chinese hamster; conditions: for binding to CHO cells: NH2-terminally biotinylated peptide, streptavidin-allophycocyanin
Experimental: Chinese hamster ovary (CHO) cells were a gift from M. Parmentier (ULB, Brussels, Belgium) and were cultured in Ham’s F-12 medium (with L-glutamine; Lonza, Belgium) supplemented with 10% fetal calf serum (FCS) and 0.8% G418 (Geneticin®; Life Technologies), as described ([44]). To inhibit sulfation of cellular GAGs, CHO cells were cultured in the presence of 100 mM sodium chlorate (NaClO3) for 24 h as previously described ([42]).
Binding of biotinylated CXCL9(74-103) and CXCL9(74-93) to CHO cells was assessed by flow cytometry as recently described ([42]). Briefly, cells were detached with phosphate-buffered saline (PBS) with 0.02% ethylenediaminetetraacetic acid (EDTA) and incubated with NH2-terminally biotinylated peptides. Subsequently, cells were incubated with streptavidin-allophycocyanin (BD Biosciences, San Jose, CA, USA) and analyzed by flow cytometry (FACSCalibur, BD Biosciences). To confirm inhibition of sulfation of cellular GAGs, part of the cells were stained with a mouse monoclonal anti-human HS antibody (Immunosource, Schilde, Belgium) and a secondary phycoerythrin-labeled goat anti-mouse antibody (BD Biosciences). Finally, cells were analyzed by flow cytometry. Analogously, binding of 100 nM biotinylated CXCL8 in the presence or absence of CXCL9(74-103) or CXCL9(74-93) was compared on CHO cells.
Figure 2 CXCL9(74-93) interacts with cellular glycosaminoglycans (GAGs). The interaction of the COOH-terminal CXCL9 peptides with Chinese hamster ovary (CHO) cells was assessed by flow cytometric analysis. (A) CHO cells were treated with dilutions of NH2-terminally biotinylated CXCL9(74-103) and CXCL9(74-93), which were detected by streptavidin-allophycocyanin. (B) To ensure that the binding of CXCL9(74-93) was GAG-mediated, CHO cells were treated with sodium chlorate (NaClO3) to reduce the sulfation of GAGs. Binding of biotinylated CXCL9(74-93) to cells, treated or untreated with NaClO3, was detected by streptavidin-allophycocyanin. The mean (+SEM) fluorescence intensity of bound biotinylated CXCL9 peptides to CHO cells is indicated on the y-axis (n ≥ 4). A statistical comparison to evaluate the binding of biotinylated peptides on CHO cells [compared to the corresponding concentration of CXCL9(74-103) (A) or to the binding to cells not treated with NaClO3 (B)] was performed using the Mann–Whitney U-test (*p < 0.05; **p < 0.01).

[4] = Isothermal fluorescence titration (IFT), HS; type: binding; conditions: for affinity for HS: IFT, both COOH-terminal peptides compared
Experimental: To study the interaction between CXCL9(74-93) and GAGs, titration experiments were performed as described by Gerlza et al. ([46]) using TAMRA-labeled synthetic CXCL9(74-93), TAMRA-labeled synthetic CXCL9(74-103), HS (Iduron BN1, Manchester, UK), low molecular weight heparin (LMWH; Iduron BN5), and chondroitin sulfate (CS; Carbosynth, Compton, UK).

| reduction of CXCL1 binding to HS ([1]; 10-fold molar excess) [%] | Kd ([4]; isothermal fluorescence titration, TAMRA-labeled peptide, biphasic binding isotherm, fit of only the initial high-affinity phase) [nM] | Substance | maximum inhibition of CXCL1 binding to HS [1] [%] | competition for CXCL1 binding to HS [1] | neutrophils in the peritoneal cavity upon CXCL8 ([2]; 66 µg peptide i.v. (equal molar amount to 108 µg CXCL9(74-103)), CXCL8 i.p., control 192 × 10^4, Figure 4C) | percentage of neutrophils in the peritoneal cavity upon CXCL8 ([2]; 66 µg peptide i.v., CXCL8 i.p., control 19%, Figure 4C) [%] | potency against CXCL8 relative to CXCL9(74-103) ([2]; i.v., peritoneal model, Figure 4C) | binding to CHO cells after reduction of GAG sulfation ([3]; CHO cells treated with 100 mM NaClO3 (24 h) vs untreated, biotinylated peptide, Figure 2B) | affinity to cellular GAGs relative to CXCL9(74-103) ([3]; CHO cells, biotinylated peptides, n ≥ 4, Figure 2A) | binding to CHO cells ([3]; n ≥ 4, Figure 2A) | affinity for HS [4] | reduction of CXCL1 binding to HS ([1]; threefold molar excess compared to CXCL1) [%] | reduction of CXCL8-induced neutrophil recruitment to peritoneal cavity ([2]; 12 µg peptide i.p., Figure 4A) | reduction of CXCL8-induced neutrophil recruitment to peritoneal cavity ([2]; 36 µg peptide i.p., Figure 4A) | neutrophil influx to peritoneal cavity upon CXCL8 ([2]; 36 µg peptide i.v., not significant, Figure 4B) | neutrophils in the peritoneal cavity upon CXCL8 ([2]; 108 µg peptide i.p. co-injected with 1 µg CXCL8 i.p., NMRI, 2 h, CXCL8 alone about 142 × 10^4, Figure 4A) | percentage of neutrophils in the peritoneal cavity upon CXCL8 ([2]; 108 µg peptide i.p. co-injected with 1 µg CXCL8 i.p., NMRI, 2 h, Figure 4A) [%] | reduction of CXCL8-induced neutrophil migration to peritoneal cavity ([2]; lower doses i.v., Figure 4B) | percentage of neutrophils in the peritoneal cavity upon CXCL8 ([2]; peptide i.v. (highest dose tested, dose not given), CXCL8 i.p., control 16.5%, Figure 4B) [%] | neutrophils in the peritoneal cavity upon CXCL8 ([2]; peptide i.v. (highest dose tested, dose not given), CXCL8 i.p., control 148 × 10^4, Figure 4B) |
| --- | --- | --- | --- | --- | --- | --- | --- | --- | --- | --- | --- | --- | --- | --- | --- | --- | --- | --- | --- | --- |
| 39 | 1 | 74KKKQKNGKKHQKKKVLKVRK93 [CXCL9(74-93), COOH-terminal peptide of CXCL9 lacking the 10 COOH-terminal amino acids of CXCL9(74-103)] | 52 | less potent competitor than CXCL9(74-103) | 65 × 10^4 neutrophils | 8.25 | equally potent inhibitor of CXCL8 than CXCL9(74-103) | significantly reduced | lower affinity to cellular GAGs | dose-dependent binding | high and comparable affinity | – | – | – | – | – | – | – | – | – |
| – | – | 74KKKQKNGKKHQKKKVLKVRKSQRSRQKKTT103 [CXCL9(74-103), COOH-terminal peptide of CXCL9] | 72 | – | – | – | – | – | – | dose-dependent binding | high and comparable affinity | 43 | failed to reduce CXCL8-induced neutrophil recruitment | failed to reduce CXCL8-induced neutrophil recruitment | a trend toward a lower neutrophil influx | 45 × 10^4 neutrophils | 6.6 | not able to reduce the neutrophil migration significantly | 10.1 | 81 × 10^4 neutrophils |
